Reference: patent US8772319B2 (priority 2004, dated 2014)
“And” between values parts separate entries of the source, which are not always exact repeats. Equal entries are not always repeated. Where two headings read alike, the source gives them in different places.

Assays:
D2 receptor [1] = biological target: T1, D2 receptor (Homo sapiens, UniProt P14416); test: cell-based; settings: read-out: D2 Antagonist activity IC50
T1 construct: expressed in transfected cells; host or cells: CHOp- cells (CHOp-D2)
T1 sequence (P14416 whole entry): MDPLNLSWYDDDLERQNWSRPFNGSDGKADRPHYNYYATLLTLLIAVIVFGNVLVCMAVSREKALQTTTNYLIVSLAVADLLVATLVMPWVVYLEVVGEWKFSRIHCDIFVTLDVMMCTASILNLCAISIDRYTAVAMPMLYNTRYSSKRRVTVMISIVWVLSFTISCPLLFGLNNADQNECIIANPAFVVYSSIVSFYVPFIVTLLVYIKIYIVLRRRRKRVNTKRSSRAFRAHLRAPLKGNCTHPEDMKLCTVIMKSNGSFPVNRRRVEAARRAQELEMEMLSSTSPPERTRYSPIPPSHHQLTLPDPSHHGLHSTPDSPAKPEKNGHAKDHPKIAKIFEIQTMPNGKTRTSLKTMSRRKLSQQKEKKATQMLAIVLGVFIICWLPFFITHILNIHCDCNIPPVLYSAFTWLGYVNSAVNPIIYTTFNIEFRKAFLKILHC

D1 receptor = biological target: T2, D1 receptor (Homo sapiens, UniProt P21728); test: D1 receptor binding, LHD1 cells, [3H]SCH 23,390
T2 construct: expressed in transfected cells; host or cells: LHD1 cells
T2 sequence (P21728 whole entry): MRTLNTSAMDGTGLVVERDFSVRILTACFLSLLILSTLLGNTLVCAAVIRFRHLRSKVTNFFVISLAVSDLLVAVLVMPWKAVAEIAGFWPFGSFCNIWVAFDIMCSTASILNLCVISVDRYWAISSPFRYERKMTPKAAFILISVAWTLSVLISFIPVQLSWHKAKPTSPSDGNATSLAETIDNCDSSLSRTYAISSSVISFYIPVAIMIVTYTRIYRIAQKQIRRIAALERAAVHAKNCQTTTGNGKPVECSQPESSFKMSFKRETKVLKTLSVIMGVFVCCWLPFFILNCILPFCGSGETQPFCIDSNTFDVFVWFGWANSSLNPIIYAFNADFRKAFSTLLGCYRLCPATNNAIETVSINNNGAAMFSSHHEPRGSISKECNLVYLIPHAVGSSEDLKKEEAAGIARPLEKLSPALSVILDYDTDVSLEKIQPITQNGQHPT

[2] = biological target: T3, human dopamine transporter (hDAT) (Homo sapiens, UniProt Q01959); test: biochemical; format: binding; settings: Table 5
T3 sequence (Q01959 whole entry): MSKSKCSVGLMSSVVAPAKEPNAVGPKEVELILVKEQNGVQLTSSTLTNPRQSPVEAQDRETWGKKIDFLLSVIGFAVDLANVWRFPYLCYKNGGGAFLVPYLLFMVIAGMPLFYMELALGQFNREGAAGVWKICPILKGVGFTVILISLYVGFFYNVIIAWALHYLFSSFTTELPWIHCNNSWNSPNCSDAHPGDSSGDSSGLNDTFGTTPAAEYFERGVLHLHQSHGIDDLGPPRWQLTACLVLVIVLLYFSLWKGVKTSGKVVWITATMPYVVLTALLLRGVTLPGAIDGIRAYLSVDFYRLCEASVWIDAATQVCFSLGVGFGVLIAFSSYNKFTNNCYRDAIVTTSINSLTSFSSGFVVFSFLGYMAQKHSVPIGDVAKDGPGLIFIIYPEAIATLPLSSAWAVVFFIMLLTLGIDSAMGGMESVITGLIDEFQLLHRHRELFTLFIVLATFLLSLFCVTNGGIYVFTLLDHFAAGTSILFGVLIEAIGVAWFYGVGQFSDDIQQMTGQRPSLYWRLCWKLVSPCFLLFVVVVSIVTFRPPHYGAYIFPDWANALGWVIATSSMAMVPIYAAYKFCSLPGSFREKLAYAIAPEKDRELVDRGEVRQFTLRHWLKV

D3 receptor [3] = biological target: T4, D3 receptor (Homo sapiens, UniProt P35462); test: Inhibition of quinpirole-stimulated mitogenesis ([3H]thymidine incorporation), CHOp-D3 cells; format: cell-based
T4 construct: expressed in transfected cells; host or cells: CHOp- cells (CHOp-D3)
T4 sequence (P35462 whole entry): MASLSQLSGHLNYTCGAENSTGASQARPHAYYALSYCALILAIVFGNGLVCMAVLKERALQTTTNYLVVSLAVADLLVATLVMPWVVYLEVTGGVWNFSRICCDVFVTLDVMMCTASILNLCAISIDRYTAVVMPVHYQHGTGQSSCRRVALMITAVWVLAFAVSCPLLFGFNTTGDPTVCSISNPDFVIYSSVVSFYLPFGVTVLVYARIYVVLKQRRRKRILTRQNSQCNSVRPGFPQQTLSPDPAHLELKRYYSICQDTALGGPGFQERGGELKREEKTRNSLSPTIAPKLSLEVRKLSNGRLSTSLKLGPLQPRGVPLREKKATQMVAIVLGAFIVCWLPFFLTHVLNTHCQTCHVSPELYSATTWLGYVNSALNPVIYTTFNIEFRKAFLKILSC

male Swiss-Webster mice [4] = test: Locomotor activity, compound alone, 1-h session; format: in vivo, mouse
Method: (§1) 3. Locomotor Activity. […] Panels of infrared beams (16 beams) and corresponding photodetectors were located in the horizontal direction along the sides of each activity chamber. […] Just prior to placement in the apparatus, all mice received a saline injection IP. In all studies, horizontal activity (interruption of 1 photocell beam) was measured for 1-h within 10-min periods. Testing was conducted with one mouse per activity chamber. […] Plot the mean (±SEM) maximal stimulant activity (total counts in the 30 min period divided by 3) vs dose. Perform a log10 transformation of the 30 min period average counts for individual subjects to homogenize variances for subsequent analyses. […] Fit the 30 min period average counts across subjects to a function of log10 dose using least-squares curve-fitting analyses (i.e. TableCurve software from Jandel). Estimate the maximum effect from the resultant dose-response curve. […] Determine the ED50 (dose that produces ½ maximal stimulant activity) from a linear regression analysis of the ascending portion (up to the dose that produces a maximal effect) of the curve. […] Plot the mean (±SEM) activity (total counts in the 30 min period divided by 3) vs dose. Perform a log10 transformation of the 30 min period average counts for individual subjects to homogenize variances for subsequent analyses. Conduct an ANOVA and contrast (specified a priori) each dose of the test compound to the vehicle to determine significant (p<0.05) dose effects. Conduct a linear least-squares regression analysis; regress the min period average counts across subjects over the descending portion of the curve against the log10 dose of the test compound. […] Perform a log10 transformation of the 30 min period average counts for individual subjects to homogenize variances for subsequent analyses. […] Conduct a linear least-squares regression analysis; regress the 30 min period average counts across subjects over the descending portion of the curve against the log10 dose of the test compound. […] Locomotor Activity 8-hour time course/dose response study. […] A panel of infrared beams (16 beams) and corresponding photodetectors were located in the horizontal direction along the sides of each activity chamber. A 7.5-W incandescent light above each chamber provided dim illumination. Fans provided an 80-dB ambient noise level within the chamber. […] In all studies, horizontal activity (interruption of photocell beams) was measured for 8-h within 10-min periods, beginning at 0800 hrs (2 hours after lights on). Testing was conducted with one mouse per activity chamber. Compound alone study.

5-HT1A receptor = biological target: T5, 5-HT1A receptor (Homo sapiens, UniProt P08908); test: 5-HT1A receptor binding, HA7 cells, [3H]8-OH-DPAT
T5 construct: expressed in transfected cells; host or cells: HA7 cells
T5 sequence (P08908 1-422): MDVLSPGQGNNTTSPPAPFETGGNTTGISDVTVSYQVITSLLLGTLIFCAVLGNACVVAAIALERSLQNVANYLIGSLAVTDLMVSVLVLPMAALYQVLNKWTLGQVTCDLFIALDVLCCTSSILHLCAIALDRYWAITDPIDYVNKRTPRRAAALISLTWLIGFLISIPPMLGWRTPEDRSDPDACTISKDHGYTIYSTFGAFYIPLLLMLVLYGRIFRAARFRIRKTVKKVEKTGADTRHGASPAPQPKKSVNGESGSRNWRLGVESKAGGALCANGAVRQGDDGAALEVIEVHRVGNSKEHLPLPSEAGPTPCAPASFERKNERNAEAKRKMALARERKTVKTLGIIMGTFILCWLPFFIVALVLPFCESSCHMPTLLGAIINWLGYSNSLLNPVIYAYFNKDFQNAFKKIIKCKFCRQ

male Swiss-Webster mice [5] = test: Cocaine/compound interaction study on locomotor activity; format: in vivo, mouse
[6] = biological target: T3, human dopamine transporter (hDAT); test: cell-based; settings: for Discrimination Ratios (DR) [3H]DA reuptake/DAT binding: Table 6
5-HT2C receptor = biological target: T6, 5-HT2C receptor (Rattus norvegicus, UniProt P08909); test: 5-HT2C receptor binding, NIH-3T3-P cells, [3H]mesulergine
T6 construct: expressed in transfected cells; host or cells: NIH-3T3-P cells
T6 sequence (P08909 33-460): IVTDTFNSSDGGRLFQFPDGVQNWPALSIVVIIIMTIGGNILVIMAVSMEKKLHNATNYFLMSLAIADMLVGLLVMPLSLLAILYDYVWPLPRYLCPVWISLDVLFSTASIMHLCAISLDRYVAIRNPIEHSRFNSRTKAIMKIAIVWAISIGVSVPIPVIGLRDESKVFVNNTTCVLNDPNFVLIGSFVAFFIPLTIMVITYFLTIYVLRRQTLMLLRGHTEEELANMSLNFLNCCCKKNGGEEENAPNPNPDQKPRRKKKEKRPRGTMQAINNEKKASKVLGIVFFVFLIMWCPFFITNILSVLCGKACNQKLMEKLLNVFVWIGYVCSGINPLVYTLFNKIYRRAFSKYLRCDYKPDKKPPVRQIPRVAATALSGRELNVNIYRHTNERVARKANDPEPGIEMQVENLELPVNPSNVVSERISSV

male Swiss-Webster mice [7] = test: Locomotor activity 8-hour time course/dose response study
Method: as §1

[8] = biological target: T7, human serotonin transporter (hSERT) (Homo sapiens, UniProt P31645); test: cell-based; settings: Reuptake Inhibition [3H]5-HT IC50, Table 6
T7 sequence (P31645 whole entry): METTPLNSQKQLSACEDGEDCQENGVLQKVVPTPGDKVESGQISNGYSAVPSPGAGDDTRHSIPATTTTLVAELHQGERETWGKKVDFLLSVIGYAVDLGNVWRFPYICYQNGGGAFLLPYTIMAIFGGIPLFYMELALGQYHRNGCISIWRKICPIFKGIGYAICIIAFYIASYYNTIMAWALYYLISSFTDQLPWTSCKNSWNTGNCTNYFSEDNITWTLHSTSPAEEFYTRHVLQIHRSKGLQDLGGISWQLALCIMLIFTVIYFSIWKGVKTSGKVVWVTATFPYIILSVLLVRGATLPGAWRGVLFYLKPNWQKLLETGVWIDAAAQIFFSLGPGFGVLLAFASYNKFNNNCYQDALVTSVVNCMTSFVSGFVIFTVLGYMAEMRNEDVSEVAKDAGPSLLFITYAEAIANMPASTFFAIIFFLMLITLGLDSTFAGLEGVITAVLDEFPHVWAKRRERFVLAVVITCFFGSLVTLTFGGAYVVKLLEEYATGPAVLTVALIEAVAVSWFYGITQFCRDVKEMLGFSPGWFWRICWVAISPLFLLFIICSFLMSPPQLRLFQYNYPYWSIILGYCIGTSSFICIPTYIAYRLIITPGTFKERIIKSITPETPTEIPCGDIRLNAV

[9] = biological target: T7, human serotonin transporter (hSERT); test: biochemical; settings: Table 5; [125I]RTI-55; oxalate salts; read-out: SERT binding affinity Ki
D2 receptor [10] = biological target: T1, D2 receptor; test: D2 receptor binding, CHOp- cells, [3H]YM-09151-2
D3 receptor [11] = biological target: T4, D3 receptor; test: D3 receptor binding, CHOp- cells, [3H]YM-09151-2
5-HT2A receptor = biological target: T8, 5-HT2A receptor (Rattus norvegicus, UniProt P14842); test: 5-HT2A receptor binding, NIH-3T3-GF6 cells, [3H]ketanserin
T8 construct: expressed in transfected cells; host or cells: NIH-3T3-GF6 cells
T8 sequence (P14842 whole entry): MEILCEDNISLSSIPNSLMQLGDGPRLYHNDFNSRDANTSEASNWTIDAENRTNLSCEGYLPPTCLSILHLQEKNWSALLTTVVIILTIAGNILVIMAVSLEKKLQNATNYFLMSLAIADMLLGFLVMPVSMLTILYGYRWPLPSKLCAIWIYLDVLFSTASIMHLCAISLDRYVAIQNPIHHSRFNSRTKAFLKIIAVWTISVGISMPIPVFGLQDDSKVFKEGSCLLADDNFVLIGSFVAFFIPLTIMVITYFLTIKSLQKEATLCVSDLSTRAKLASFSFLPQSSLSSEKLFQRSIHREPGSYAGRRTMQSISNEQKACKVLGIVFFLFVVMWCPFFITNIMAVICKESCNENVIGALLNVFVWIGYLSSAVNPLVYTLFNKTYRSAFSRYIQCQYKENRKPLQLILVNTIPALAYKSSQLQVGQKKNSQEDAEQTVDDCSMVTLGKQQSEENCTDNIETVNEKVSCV

[12] = biological target: human norepinephrine transporter (hNET) (Homo sapiens, UniProt P23975); test: cell-based; settings: Table 6; read-out: Reuptake Inhibition [3H]NE IC50
human norepinephrine transporter (hNET), sequence (P23975 whole entry): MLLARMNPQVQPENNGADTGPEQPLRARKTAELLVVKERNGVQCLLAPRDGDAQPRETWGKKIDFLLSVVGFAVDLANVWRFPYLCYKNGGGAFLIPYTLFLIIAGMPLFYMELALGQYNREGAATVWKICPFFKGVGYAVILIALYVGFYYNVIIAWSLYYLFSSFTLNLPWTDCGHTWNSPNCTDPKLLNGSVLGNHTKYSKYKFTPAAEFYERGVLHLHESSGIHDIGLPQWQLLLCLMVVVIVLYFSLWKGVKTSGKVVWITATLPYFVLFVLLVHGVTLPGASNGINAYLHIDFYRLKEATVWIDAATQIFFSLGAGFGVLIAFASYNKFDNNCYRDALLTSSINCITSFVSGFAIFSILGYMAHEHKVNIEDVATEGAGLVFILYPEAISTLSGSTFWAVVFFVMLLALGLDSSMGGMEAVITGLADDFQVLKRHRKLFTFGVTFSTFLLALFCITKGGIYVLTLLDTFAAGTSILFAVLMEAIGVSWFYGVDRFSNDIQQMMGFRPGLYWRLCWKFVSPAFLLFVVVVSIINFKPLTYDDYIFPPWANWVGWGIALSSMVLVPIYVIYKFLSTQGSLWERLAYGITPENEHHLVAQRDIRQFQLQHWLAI

[13] = Table 7, LHD1 cells, [3H]SCH 23,390, read-out: D1 Affinity Ki
[14] = Table 7, CHOp- cells, [3H]YM-09151-2, read-out: D2 Affinity Ki
[15] = Table 7, CHOp- cells, [3H]YM-09151-2, read-out: D3 Affinity Ki
[16] = Table 7, rat receptors, NIH-3T3-GF6 cells, [3H]ketanserin, read-out: 5-HT2A Affinity Ki

Structure (SMILES)	IC50 (D2 receptor [1]) [nM]	Ki (D1 receptor; [13]) [nM]	Binding Ratios NET/DAT [2]	Binding Ratios SERT/DAT [2]	IC50 (D3 receptor [3]) [nM]	Ki (5-HT1A receptor) [nM]	Discrimination Ratios (DR) [3H]DA reuptake/DAT binding [6]	Ki (D2 receptor [10]; [14]) [nM]	Ki (D3 receptor [11]; [15]) [nM]	Ki (5-HT2A receptor; [16]) [nM]	further results
Fc1ccc(C(OCCCCN2CCNC(c3ccccc3)C2)c2ccc(F)cc2)cc1 (stereo not drawn) [Compound 28, 2-Phenyl-4-[4-[bis(4-fluorophenyl)methoxy]butyl]piperazine]	164	6150 ± 541	49.9	19.6	629	2250 ± 359	144 and 144.4	715 ± 404	677 ± 262	1490 ± 352	Ki ([2]; [125I]RTI-55, oxalate salts, read-out: DAT binding affinity Ki): 3.81 ± 0.84 nM; ED50 (male Swiss-Webster mice [4]; Mus musculus, ip, 1 h, read-out: ED50, dose producing 1/2 maximal stimulant activity (S, stimulation)): 1.52 mg/kg; mode of action (male Swiss-Webster mice [4]; Table 8, ligand alone study): monophasic; ME/CME, Maximal Effect/Cocaine Maximal Effect (male Swiss-Webster mice [4]; Table 8, mouse locomotor activity): 0.30; effect on spontaneous LMA (male Swiss-Webster mice [4]; mouse, compound alone): significant increase; Attenuation of cocaine-induced LMA (male Swiss-Webster mice [5]; 20 mg/kg of cocaine): Attenuation; AD50, dose attenuating cocaine-induced stimulation by 50% (male Swiss-Webster mice [5]; Table 8, ligand-cocaine interaction study, 20 mg/kg cocaine IP): 50.27 mg/kg; IC50 ([6]; Reuptake Inhibition [3H]DA IC50, Table 6): 550 ± 140 nM; Ki (5-HT2C receptor; Table 7, rat receptors, [3H]mesulergine, read-out: 5-HT2C Affinity Ki): 6.7 ± 0.437 µM; ED50 (male Swiss-Webster mice [7]; Mus musculus, ip, 8 h, read-out: ED50, dose producing 1/2 maximal stimulant activity (S, stimulation)): 7.6 mg/kg; ME/CME, Maximal Effect/Cocaine Maximal Effect (male Swiss-Webster mice [7]; Table 9, 8 hours): 0.30; mode of action (male Swiss-Webster mice [7]; Table 9, ligand alone study, 8 hours): biphasic; ID50, dose producing 1/2 maximal depressant activity (I, inhibition) (male Swiss-Webster mice [7]; Table 9, mouse, IP, 8 hours): 36.4/I^e,f mg/kg; IC50 [8]: 700 ± 260 nM; Ki [9]: 74.6 ± 5.8 nM; IC50 [12]: 290 ± 50 nM
Fc1ccc(C(OCCCCN2CCN(c3ccccc3)CC2)c2ccc(F)cc2)cc1 [Compound 29, 1-Phenyl-4-[4-[bis(4-fluorophenyl)methoxy]butyl]piperazine]	120	2430 ± 367	3.3	0.8	44.6	285 ± 76.4	23.2	447 ± 73.9	242 ± 7.41	404 ± 52.6	Ki (5-HT2C receptor; Table 7, bound given in μM, read-out: 5-HT2C Affinity Ki): > 10 µM
Fc1ccc(C(OCCCCN2CCN(c3ccc(Cl)cc3)CC2)c2ccc(F)cc2)cc1 [Compound 34, 1-(4-Chlorophenyl)-4-[4-[bis(4-fluorophenyl)methoxy]butyl]piperazine]	–	–	7.6	0.7	2.55	> 10000	23.4	–	–	–	Ki (D1 receptor): > 10000 nM; antagonistic activity at D3 site (D3 receptor [3]; Table 7): selective and strong antagonistic activity; Ki (5-HT2C receptor): > 10 µM; Ki (D2 receptor [10]): > 10000 nM; Ki (D3 receptor [11]): 340 ± 143 nM; Ki (5-HT2A receptor): 1150 ± 44.2 nM
